Source: ChEMBL document CHEMBL6182904, “Discovery of a novel molecular glue degrader targeting GSPT1/2 with a non-IMiD-based CRBN binder” (Eur J Med Chem, 2025)
The source made the active and inactive calls. The calls are words filed in the database; no cut-off is given here.

Assays:
[1] = target: Protein cereblon/Eukaryotic peptide chain release factor GTP-binding subunit ERF3A (Homo sapiens, UniProt P15170+Q96SW2); test: Molecular glue activity at LgBiT tagged CRBN/SmBiT tagged GSPT1 (unknown origin) transfected with HEK293T cells assessed as ternary complex formation incubated for 1 hr by Nano-Glo luminescence analysis; type: cell-based
[2] = target: T1, Protein cereblon/Eukaryotic peptide chain release factor GTP-binding subunit ERF3A (Homo sapiens, UniProt Q96SW2+P15170); test: Molecular glue activity at human full length wild type CRBN/Hibit tagged GSPT1 in human Jurkat cells assessed as induction of GSPT1 degradation; type: cell-based
Target sequence in this assay (Q96SW2 whole entry): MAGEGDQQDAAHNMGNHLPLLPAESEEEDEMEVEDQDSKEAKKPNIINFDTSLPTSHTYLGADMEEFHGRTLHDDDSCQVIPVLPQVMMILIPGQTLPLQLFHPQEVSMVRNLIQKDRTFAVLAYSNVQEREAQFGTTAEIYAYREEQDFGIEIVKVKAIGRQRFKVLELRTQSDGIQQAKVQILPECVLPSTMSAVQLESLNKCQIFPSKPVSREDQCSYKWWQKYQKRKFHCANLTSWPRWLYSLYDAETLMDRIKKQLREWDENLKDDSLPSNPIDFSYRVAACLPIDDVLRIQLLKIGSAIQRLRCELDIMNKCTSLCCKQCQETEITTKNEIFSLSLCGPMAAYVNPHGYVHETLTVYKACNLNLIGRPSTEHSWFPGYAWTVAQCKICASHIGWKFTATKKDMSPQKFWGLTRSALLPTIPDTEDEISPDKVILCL
Target sequence in this assay (P15170 whole entry): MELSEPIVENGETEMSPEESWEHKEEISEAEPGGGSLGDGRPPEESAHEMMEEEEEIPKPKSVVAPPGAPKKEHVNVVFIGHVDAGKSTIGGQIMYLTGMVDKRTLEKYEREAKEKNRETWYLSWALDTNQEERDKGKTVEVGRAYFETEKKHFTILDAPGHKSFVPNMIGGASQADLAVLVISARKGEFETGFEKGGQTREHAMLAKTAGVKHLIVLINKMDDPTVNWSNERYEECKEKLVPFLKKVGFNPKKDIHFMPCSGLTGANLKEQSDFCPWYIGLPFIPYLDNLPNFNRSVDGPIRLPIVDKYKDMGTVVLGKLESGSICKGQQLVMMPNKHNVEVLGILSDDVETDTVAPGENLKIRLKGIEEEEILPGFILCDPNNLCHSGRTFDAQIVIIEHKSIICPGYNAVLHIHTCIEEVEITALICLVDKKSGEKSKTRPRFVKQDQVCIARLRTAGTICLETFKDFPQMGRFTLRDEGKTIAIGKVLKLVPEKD

[3] = target: Protein cereblon (Homo sapiens) (UniProt Q96SW2); test: Binding affinity to CRBN (unknown origin) at 10 uM relative to control
[4] = target: T1, Protein cereblon/Eukaryotic peptide chain release factor GTP-binding subunit ERF3A; test: Molecular glue activity at full length human wild type CRBN/HiBit tagged GSPT1 in human Jurkat cells assessed as induction of GSPT1 degradation incubated for 6 hrs by Western blot analysis; type: cell-based
Target sequence in this assay (Q96SW2 whole entry): as the sequence (Q96SW2 whole entry) above
Target sequence in this assay (P15170 whole entry): as the sequence (P15170 whole entry) above

[5] = target: T1, Protein cereblon/Eukaryotic peptide chain release factor GTP-binding subunit ERF3A; test: Molecular glue activity at full length wild type human CRBN/HiBit tagged GSPT1 in human Jurkat cells harbouring cullin4 knockdown assessed as induction of GSPT1 degradation at 1 uM incubated for 6 hrs by Western blot analysis; type: cell-based
Target sequence in this assay (P15170 whole entry, looked up): as the sequence (P15170 whole entry) above
Target sequence in this assay (Q96SW2 whole entry, looked up): as the sequence (Q96SW2 whole entry) above

[6] = target: T1, Protein cereblon/Eukaryotic peptide chain release factor GTP-binding subunit ERF3A; test: Molecular glue activity at full length wild type CRBN/HiBit tagged GSPT1 in human Jurkat cells harbouring wildtype CRBN assessed as induction of GSPT1 degradation at 0.1 to 10 uM incubated for 6 hrs by Western blot analysis; type: cell-based; details: dose 0.1-10 µM
Target sequence in this assay (P15170 whole entry, looked up): as the sequence (P15170 whole entry) above
Target sequence in this assay (Q96SW2 whole entry, looked up): as the sequence (Q96SW2 whole entry) above

[7] = target: T2, Protein cereblon/Eukaryotic peptide chain release factor GTP-binding subunit ERF3B (Homo sapiens, UniProt Q96SW2+Q8IYD1); test: Molecular glue activity at full length human wild type CRBN/GSPT2 in human Jurkat cells assessed as induction of GSPT2 degradation at 3 uM incubated for 6 hrs by Western blot analysis; type: cell-based
Target sequence in this assay (Q8IYD1 whole entry, looked up): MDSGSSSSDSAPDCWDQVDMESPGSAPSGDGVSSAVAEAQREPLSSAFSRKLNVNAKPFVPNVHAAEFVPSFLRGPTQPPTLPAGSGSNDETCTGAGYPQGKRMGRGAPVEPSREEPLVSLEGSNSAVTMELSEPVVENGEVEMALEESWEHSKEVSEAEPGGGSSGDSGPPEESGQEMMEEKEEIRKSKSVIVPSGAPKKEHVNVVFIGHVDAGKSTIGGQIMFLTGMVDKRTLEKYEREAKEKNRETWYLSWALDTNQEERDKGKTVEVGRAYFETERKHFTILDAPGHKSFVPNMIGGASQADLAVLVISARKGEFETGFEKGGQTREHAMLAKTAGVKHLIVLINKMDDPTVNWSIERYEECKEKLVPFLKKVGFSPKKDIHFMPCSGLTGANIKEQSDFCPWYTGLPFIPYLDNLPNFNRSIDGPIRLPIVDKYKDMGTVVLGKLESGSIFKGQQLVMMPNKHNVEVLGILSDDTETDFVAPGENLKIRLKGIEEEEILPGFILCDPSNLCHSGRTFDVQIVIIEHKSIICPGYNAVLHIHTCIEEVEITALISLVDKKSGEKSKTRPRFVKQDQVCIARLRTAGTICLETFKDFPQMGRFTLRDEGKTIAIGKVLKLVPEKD
Target sequence in this assay (Q96SW2 whole entry, looked up): as the sequence (Q96SW2 whole entry) above

[8] = target: T1, Protein cereblon/Eukaryotic peptide chain release factor GTP-binding subunit ERF3A; test: Molecular glue activity at full length human wild type CRBN/HiBit tagged GSPT1 in HEK293T cells assessed as induction of GSPT1 degradation at 0.1 to 10 uM incubated for 6 hrs by Western blot analysis; type: cell-based; details: dose 0.1-10 µM
Target sequence in this assay (P15170 whole entry, looked up): as the sequence (P15170 whole entry) above
Target sequence in this assay (Q96SW2 whole entry, looked up): as the sequence (Q96SW2 whole entry) above

MCF7 = test: Selectivity ratio of GI50 for cytotoxicity against human MCF7 cells assessed as cell growth inhibition measured after 72 hrs in presence of MLN4924 to GI50 for cytotoxicity against human MCF7 cells assessed as cell growth inhibition measured after 72 hrs; type: functional
Jurkat [9] = test: Cytotoxicity against human Jurkat cells assessed as cell growth inhibition measured after 72 hrs by CellTiter-Glo assay; type: functional
[10] = target: T2, Protein cereblon/Eukaryotic peptide chain release factor GTP-binding subunit ERF3B; test: Molecular glue activity at full length human wild type CRBN/HiBit tagged GSPT2 in human Jurkat cells assessed as induction of GSPT2 degradation at 0.1 to 10 uM incubated for 6 hrs in presence of bortezomib by Western blot analysis; type: cell-based; details: dose 0.1-10 µM
Target sequence in this assay (Q8IYD1 whole entry, looked up): as the sequence (Q8IYD1 whole entry, looked up) above
Target sequence in this assay (Q96SW2 whole entry, looked up): as the sequence (Q96SW2 whole entry) above

[11] = target: T1, Protein cereblon/Eukaryotic peptide chain release factor GTP-binding subunit ERF3A; test: Molecular glue activity at full length human wild type CRBN/HiBit tagged GSPT1 in human KG-1 cells assessed as induction of GSPT1 degradation at 0.1 to 10 uM incubated for 6 hrs by Western blot analysis; type: cell-based; details: dose 0.1-10 µM
Target sequence in this assay (P15170 whole entry, looked up): as the sequence (P15170 whole entry) above
Target sequence in this assay (Q96SW2 whole entry, looked up): as the sequence (Q96SW2 whole entry) above

[12] = Cytotoxicity against human Jurkat cells assessed as cell growth inhibition measured after 72 hrs in presence of MLN4924 by CellTiter-Glo assay; type: toxicity, cell-based
Jurkat [13] = test: Cytotoxicity against human Jurkat cells harbouring cullin4 knockdown assessed as cell growth inhibition measured after 72 hrs by CellTiter-Glo assay; type: functional
[14] = target: Protein cereblon/Eukaryotic peptide chain release factor GTP-binding subunit ERF3A (Mus musculus) (UniProt Q8C7D2+Q8R050); test: Molecular glue activity at Wild type CRBN/GSPT1 in mouse MEF cells harbouring CRBN knockout assessed as induction of GSPT1 degradation at 0.1 to 10 uM incubated for 24 hrs by Western blot analysis; type: cell-based; details: dose 0.1-10 µM
[15] = Cytotoxicity against HEK293T cells assessed as cell growth inhibition measured after 72 hrs in presence of MLN4924 by CellTiter-Glo assay; type: toxicity, cell-based, HEK-293T; details: human
[16] = Cytotoxicity against HEK293T cells assessed as cell growth inhibition measured after 72 hrs by CellTiter-Glo assay; type: toxicity, cell-based, HEK-293T; details: human
MEF = test: Molecular glue activity at CRBN W386A mutant/GSPT1 in mouse MEF cells harbouring CRBN knockout assessed as induction of GSPT1 degradation at 0.1 to 10 uM incubated for 24 hrs by Western blot analysis; type: cell-based; details: dose 0.1-10 µM
[17] = target: T1, Protein cereblon/Eukaryotic peptide chain release factor GTP-binding subunit ERF3A; test: Molecular glue activity at full length human wild type CRBN/HiBit tagged GSPT1 in HEK293T cells assessed as induction of GSPT1 degradation incubated for 6 hrs by Nano-Glo luminescence assay; type: cell-based
Target sequence in this assay (Q96SW2 whole entry): as above
Target sequence in this assay (P15170 whole entry): as the sequence (P15170 whole entry) above

[18] = target: T1, Protein cereblon/Eukaryotic peptide chain release factor GTP-binding subunit ERF3A; test: Molecular glue activity at full length human wild type CRBN/HiBit tagged GSPT1 in HEK293T cells assessed as induction of GSPT1 degradation at 1 uM incubated for 12 hrs by Western blot analysis; type: cell-based
Target sequence in this assay (P15170 whole entry, looked up): as the sequence (P15170 whole entry) above
Target sequence in this assay (Q96SW2 whole entry, looked up): as the sequence (Q96SW2 whole entry) above

[19] = target: T2, Protein cereblon/Eukaryotic peptide chain release factor GTP-binding subunit ERF3B; test: Molecular glue activity at full length human wild type CRBN/GSPT2 in human Jurkat cells assessed as induction of GSPT2 degradation incubated for 6 hrs by Western blot analysis; type: cell-based
[20] = target: T2, Protein cereblon/Eukaryotic peptide chain release factor GTP-binding subunit ERF3B; test: Molecular glue activity at human full length wildtype CRBN/HiBiT tagged GSPT2 in human MIA PaCa-2 cells transfected with CRBN-TurboID-V5 assessed as ternary complex formation at 1 uM preincubated for 4 hrs followed by bortezomib addition and measured after 2 hrs by TurboID analysis; type: cell-based; details: time 6.0 hrs
Target sequence in this assay (Q8IYD1 whole entry, looked up): as the sequence (Q8IYD1 whole entry, looked up) above
Target sequence in this assay (Q96SW2 whole entry, looked up): as the sequence (Q96SW2 whole entry) above

[21] = target: T1, Protein cereblon/Eukaryotic peptide chain release factor GTP-binding subunit ERF3A; test: Molecular glue activity at full length human wild type CRBN/HiBit tagged GSPT1 in HEK293T cells assessed as induction of GSPT1 degradation at 10 uM incubated for 6 hrs in presence of pomalidomide by Nano-Glo luminescence assay relative to control; type: cell-based
Target sequence in this assay (P15170 whole entry, looked up): as the sequence (P15170 whole entry) above
Target sequence in this assay (Q96SW2 whole entry, looked up): as the sequence (Q96SW2 whole entry) above

[22] = target: T1, Protein cereblon/Eukaryotic peptide chain release factor GTP-binding subunit ERF3A; test: Molecular glue activity at full length human wild type CRBN/HiBit tagged GSPT1 in human Jurkat cells assessed as induction of GSPT1 degradation at 0.1 to 10 uM incubated for 6 hrs in presence of bortezomib by Western blot analysis; type: cell-based; details: dose 0.1-10 µM
[23] = Selectivity ratio of GI50 for cytotoxicity against human HCT-116 cells assessed as cell growth inhibition measured after 72 hrs in presence of MLN4924 to GI50 for cytotoxicity against human HCT-116 cells assessed as cell growth inhibition measured after 72 hrs; type: functional
[24] = target: T1, Protein cereblon/Eukaryotic peptide chain release factor GTP-binding subunit ERF3A; test: Molecular glue activity at full length wild type CRBN/HiBit tagged GSPT1 in human Jurkat cells harbouring CRBN knockout assessed as induction of GSPT1 degradation at 0.1 to 10 uM incubated for 6 hrs by Western blot analysis; type: cell-based; details: dose 0.1-10 µM
[25] = Selectivity ratio of GI50 for cytotoxicity against human MIA PaCa-2 cells assessed as cell growth inhibition measured after 72 hrs in presence of MLN4924 to GI50 for cytotoxicity against human MIA PaCa-2 cells assessed as cell growth inhibition measured after 72 hrs; type: functional
[26] = target: Protein cereblon (Homo sapiens) (UniProt Q96SW2); test: Binding affinity to CRBN in HEK293T cells harbouring DDB1/Nanoluc assessed as decrease in BRET ratio incubated for 2 hrs NanoBRET engagement assay; type: cell-based; details: dose 1-30 µM
[27] = target: T1, Protein cereblon/Eukaryotic peptide chain release factor GTP-binding subunit ERF3A; test: Molecular glue activity at full length human wild type CRBN/HiBit tagged GSPT1 in HEK293T cells assessed as induction of GSPT1 degradation at 10 uM incubated for 6 hrs by Nano-Glo luminescence assay relative to control; type: cell-based
[28] = target: T2, Protein cereblon/Eukaryotic peptide chain release factor GTP-binding subunit ERF3B; test: Molecular glue activity at full length wild type CRBN/HiBit tagged GSPT2 in human Jurkat cells harbouring CRBN knockout assessed as induction of GSPT2 degradation at 0.1 to 10 uM incubated for 6 hrs by Western blot analysis; type: cell-based; details: dose 0.1-10 µM
Target sequence in this assay (Q8IYD1 whole entry, looked up): as the sequence (Q8IYD1 whole entry, looked up) above
Target sequence in this assay (Q96SW2 whole entry, looked up): as the sequence (Q96SW2 whole entry) above

[29] = target: T2, Protein cereblon/Eukaryotic peptide chain release factor GTP-binding subunit ERF3B; test: Molecular glue activity at full length wild type CRBN/HiBit tagged GSPT2 in human Jurkat cells harbouring wildtype CRBN assessed as induction of GSPT2 degradation at 0.1 to 10 uM incubated for 6 hrs by Western blot analysis; type: cell-based; details: dose 0.1-10 µM
Target sequence in this assay (Q8IYD1 whole entry, looked up): as the sequence (Q8IYD1 whole entry, looked up) above
Target sequence in this assay (Q96SW2 whole entry, looked up): as the sequence (Q96SW2 whole entry) above

[30] = target: T1, Protein cereblon/Eukaryotic peptide chain release factor GTP-binding subunit ERF3A; test: Molecular glue activity at full length wild type human CRBN/HiBit tagged GSPT1 in human Jurkat cells assessed as induction of GSPT1 degradation at 3 uM incubated for 6 hrs by Western blot analysis; type: cell-based
[31] = target: T1, Protein cereblon/Eukaryotic peptide chain release factor GTP-binding subunit ERF3A; test: Molecular glue activity at full length human wild type CRBN/HiBit tagged GSPT1 in HEK293T cells assessed as induction of GSPT1 degradation incubated for 6 hrs in presence of pomalidomide by Nano-Glo luminescence assay; type: cell-based
Target sequence in this assay (Q96SW2 whole entry): as above
Target sequence in this assay (P15170 whole entry): as the sequence (P15170 whole entry) above

[32] = target: T1, Protein cereblon/Eukaryotic peptide chain release factor GTP-binding subunit ERF3A; test: Molecular glue activity at human full length wildtype CRBN/HiBiT tagged GSPT1 in human MIA PaCa-2 cells transfected with CRBN-TurboID-V5 assessed as ternary complex formation at 1 uM preincubated for 4 hrs followed by bortezomib addition and measured after 2 hrs by TurboID analysis; type: cell-based; details: time 6.0 hrs

Sequence of Protein cereblon (Homo sapiens) (Q96SW2 whole entry): as the sequence (Q96SW2 whole entry) above

Structure (SMILES): Cc1ccc(NC(=O)NCc2ccc3c(c2)CN(C2CCC(=O)NC2=O)C3=O)cc1Cl (stereo unspecified)
- EC50 [1]: 0.1 µM

Structure (SMILES): COC(=O)c1nc(NC(=O)Cn2cnccc2=O)sc1CCc1ccccc1
- DC50 [2]: 4 µM
- Activity [3]: 13.8%

Structure (SMILES): COC(=O)c1nc(NC(=O)Cn2cnc(C)c(C)c2=O)sc1CCc1cccc(Cl)c1
- DC50 [2]: > 10 µM
- Activity [3]: inactive

Structure (SMILES): COC(=O)c1nc(NC(=O)Cn2cnc3c(c2=O)CCC3)sc1CCc1ccccc1
- DC50 [2]: > 10 µM
- Activity [3]: -14.4%

Structure (SMILES): COC(=O)c1nc(NC(=O)Cn2cncc(C)c2=O)sc1CCc1ccccc1
- DC50 [2]: > 10 µM
- Activity [3]: inactive

Structure (SMILES): COC(=O)c1nc(NC(=O)Cn2cnc(C)c(C)c2=O)sc1CCc1ccccc1
- DC50 [4]: 0.127 µM
- Activity [5]: inactive
- Activity [6]: Active
- Activity [7]: Active
- Activity [8]: Active
- RatioGI50 (MCF7): 3
- GI50 (Jurkat [9]): 0.5 µM
- Activity [10]: inactive
- Activity [11]: Active
- GI50 at 72 h [12]: 1.4 µM
- GI50 (Jurkat [13]): 3.2 µM
- Activity [14]: Active
- GI50 at 72 h [15]: 18.4 µM
- GI50 at 72 h [16]: 0.8 µM
- DC50 [2]: 1.2 µM
- Activity (MEF): inactive
- DC50 [17]: 0.2 µM
- Activity [18]: Active
- DC50 [19]: 0.0422 µM
- Activity [20]: inactive
- Emax [21]: 31.7%
- Activity [22]: inactive
- RatioGI50 [23]: 3
- Activity [24]: inactive
- RatioGI50 [25]: 3
- Activity [26]: Dose-dependent-effect
- Emax [27]: 98.2%
- Activity [28]: inactive
- Activity [29]: Active
- EC50 [1]: 11.4 µM
- Activity [3]: 47.6%
- Activity [30]: Active
- DC50 [31]: 45 µM
- Activity [32]: inactive

Structure (SMILES): COC(=O)c1nc(NC(=O)Cn2cnc(C)c(C)c2=O)sc1Cc1ccccc1
- DC50 [2]: > 10 µM
- Activity [3]: -5.6%

Structure (SMILES): COC(=O)c1nc(NC(=O)Cn2cnc(C)c(C)c2=O)sc1CCc1ccc(Cl)cc1
- DC50 [2]: > 10 µM
- Activity [3]: inactive

Structure (SMILES): CNC(=O)c1nc(NC(=O)Cn2cnc(C)c(C)c2=O)sc1CCc1ccccc1
- DC50 [2]: > 10 µM
- Activity [3]: -9%

Structure (SMILES): COC(=O)c1nc(NC(=O)Cn2cnc(C)cc2=O)sc1CCc1ccccc1
- DC50 [2]: > 10 µM
- Activity [3]: inactive
